Measurements published in patent US4117122A, “11-Aminoalkylmorphanthridin-11-ols” (Richardson-Merrell Inc., priority 1976, dated 1978).

Columns and labels:
[1] = test system: reserpine-induced depression; test: antagonism of reserpine-induced depression in mice (standard antidepressant test); assay type: in vivo; settings: for antidepressant potency relative to imipramine: compared with imipramine; for antagonism of reserpine-induced depression: mice, intraperitoneal doses of 5 to 30 mg/kg
Source text: (§1) The compounds of the present invention are unique in pharmacologic activity.

[2] = Source text: as §1
[3] = oral LD50 in standard animal tests; assay type: in vivo; settings: for LD50: in vivo, standard animal tests, approximately
Source text: as §1

Row | SMILES | antidepressant potency relative to imipramine [1] | antagonism of reserpine-induced depression [1] | anticholinergic activity [2] | oral LD50 compared with imipramine [3] | LD50 [3] [mg/kg]
1 | CN(C)CCCC1(O)c2ccccc2CNc2ccc(Cl)cc21 (stereo not shown) [2-Chloro-11-(3-dimethylaminopropyl)-5,6-dihydromorphanthridin-11-ol] | at least ten times more potent than that of imipramine | antagonize reserpine-induced depression in mice | no significant anticholinergic activity | substantially greater than that of imipramine | ~175
2 | CN(C)CCCC1(O)c2ccccc2C=Nc2ccccc21 (stereo not shown) [11-(3-Dimethylaminopropyl)morphanthridin-11-ol] | at least ten times more potent than that of imipramine | antagonize reserpine-induced depression in mice | no significant anticholinergic activity | substantially greater than that of imipramine | ~130
